Reference: patent US12194011B2, “Compositions comprising theanine, magnolia, and phellodendron” (Nutramax Laboratories, Inc., priority 2015, dated 2025)

How the values were obtained:
Wistar rats [1] = experiment: Open-field activity as a measure of sedation; type: in vivo; details: PO daily for 14 days, vehicle 9062 ± 597
Procedure: (§1) Wistar rats (16 per group) were dosed either with individual components (L-theanine, magnolia/phellodendron, and milk whey protein) or several combinations of the three, including the three-way combination (theanine+magnolia/phellodendron+milk whey protein). Magnolia/phellodendron combination was provided as a commercially available preparation (RELORA; InterHealth Nutraceuticals, Inc., Benicia, CA). Administered milk whey protein was standardized to 80% alpha-lactalbumin. The rats were dosed daily for 14 days, and then a series of behavioral assays were performed to detect any anxiolytic effects on the rats or sedative effects. The treatment groups were as follows: • 1: L-theanine+magnolia/phellodendron • 2: L-theanine+Milk Whey Protein • 3: magnolia/phellodendron+Milk Whey Protein • 4: L-theanine+magnolia/phellodendron+Milk Whey Protein • 5: L-theanine • 6: magnolia/phellodendron • 7: Milk Whey Protein
Locomotor activity in an open field test is a good measure of the sedative properties of a compound. As one example, a noted side-effect of many anxiolytic compounds such as benzodiazepines is marked sedation in conjunction with administration. […]
This test is performed by placing a rat in an open, brightly lit enclosure. The rats are videotaped, and the total distance the rat travels during the testing period is recorded as an indicator of locomotor activity. […]

GABA = experiment: Acute GABA output in hippocampal microdialysate after the 7th daily dose; type: in vivo, C57BI mice; details: up to 210 minutes after 7th daily dose, % of basal output, ANOVA p<0.05
Procedure: (§2) Neurotransmitter release patterns in the brain were measured by a procedure which involved inserting a probe into the […] region (microdialysis probe) of a laboratory animal and flushing the probe via dialysis with an artificial cerebrospinal fluid (CSF). This is an accepted and common method used to obtain and measure in vivo brain levels of neurotransmitters and other small […].
(§3) The fluid being collected represents the extracellular or interstitial fluid found in the hippocampal region of the brain. This area is usually the preferred and typical area for microdialysis analysis because any changes measured in this area of the brain are believed to correspond with approximately 80% of whole brain tissue. […]
(§4) For the evaluation, male C57BI mice were divided into groups (6 per group) and administered a variety of compounds or a placebo orally for seven days. […] Each aliquot was then analyzed to determine the amount of GABA, glutamate, and serotonin (5-HT) in each sample. […]
(§5) First, basal output levels of each neurotransmitter were measured to determine any long-term, chronic effects of each compound on the neurotransmitters. […] These levels were determined by averaging the levels of each neurotransmitter in the three, 30-minute aliquots prior to the administration of the 7th daily dose (Sample −90 min to −60, Sample −60 minutes to −30, and Sample −30 minutes to time 0). […]

serotonin (5-HT) = experiment: Basal serotonin (5-HT) output in hippocampal microdialysate after 6 daily oral doses; type: in vivo; details: male C57BI mice, basal level before 7th dose, hippocampal dialysate, student's t-test p<0.05
Procedure: as §2, §3, §4, §5

glutamate = experiment: Acute glutamate output in hippocampal microdialysate after the 7th daily dose; type: in vivo, C57BI mice; details: after 7th daily dose, % of basal output
Procedure: as §2, §3, §4, §5

Wistar rats [2] = experiment: Elevated plus-maze (EPM) test; type: in vivo; details: PO daily for 14 days, 16 per group, vehicle 10 ± 2
Procedure: as §1
The elevated plus-maze (EPM) capitalizes on the natural aversion (trait anxiety) of rodents on brightly lit, open, and elevated areas. The EPM has very strong predictive ability and is often used to profile the potential anxiolytic activity of compounds. During this test, the rats are videotaped after being placed in the elevated maze. The videos are analyzed to determine the % of time the rats stay in the open, elevated portions of the maze. […]

## CCNC(=O)CC[C@H](N)C(=O)O [Compound A, L-theanine]
Wistar rats [1]
  Mean Distance (cm) ± SEM: 9971 ± 652 cm
GABA
  acute treatment effect on GABA vs placebo (ANOVA): no statistically significant treatment effects
Serotonin (5-HT)
  effect on basal output of serotonin (5-HT) vs placebo: none of L-theanine, Relora, nor milk whey protein had any significant effect
glutamate
  immediate treatment effect on glutamate levels: neither the individual components (A, B, C) nor the combination (A+B+C) had an immediate treatment effect
Wistar rats [2]
  Mean % Time in open arms ± SEM: 13 ± 2%
